Assay [1] deals with MCF-7 cells. Kind of assay: TUNEL apoptosis assay, MCF-7. It is filed as cell-based, human. As to conditions: 5 μM; 6 days; control about 1.5%. The text has this:
(§1) The cells were rinsed with PBS and then the stained-labelled apoptotic cells were mounted using DAPI (diamidino-2-phenylindole 2HCl)-glycerol and visualised with a fluorescent microscope using two filters (1) for TUNEL stained cells, and (2) for DAPI stained cells, which represents all the cells (nuclei). Fluorescent microscope model was Nikon, Eclipse E400 and the software was SPOT advanced version 3.5.5 by Diagnostic Instruments Inc. (Sterling Heights, MI, USA).
(§2) Figure 6 Graphs showing apoptosis induced in (A) MCF-7 and (B) T47D cells as determined by TUNEL. […] TUNEL-stained apoptotic cells were counted against the DAPI stained cells to obtain percentage apoptosis. The experiments were repeated thrice with similar results. Error bars show s.e.m of three different fields of treated cells, statistically significant ^*P<0.01 and ^**P<0.001 vs control.

For assay [2], the system named is T47D cells. As to the kind of experiment: Cell cycle analysis by flow cytometry (PI), T47D. Type of assay: cell-based, human. Particulars: 5 μM, 6 days (4-HPR 4 days). The procedure: MCF-7 and T47D cells were plated in T-25 flasks and allowed to adhere for about 18 h. The cells were then synchronised by growing them in low-serum OPTI-MEM I medium for 2 days. […] After 6-day treatment, the cells were trypsinised, washed twice with PBS, centrifuged at 2500 r.p.m. to obtain a cell pellet. The cells (about 1–2 × 10^6) were fixed with 3 ml of 70% ethanol (by adding drop-wise and taking care that the cells are not clumped together). Cells were kept at −20°C until further analysis (at least overnight). Next, cells (∼1–2 × 10^6) were stained with 1 ml of propidium iodide (PI) (50 μg ml^−1)/RNase (100 μg ml^−1) solution and after about half an hour the fluorescence of stained nuclei (15 000 events) was analysed by flow cytometry (Becton Dickinson FACScan Instrument and quantification by Modfit LT version 3.1 software) with excitation wavelength of 488 nm. The percentage of G1, S, G2/M and sub-G1 (apoptotic cells) in the population of treated and untreated cells were determined.
Background: In flow cytometry, cells or beads pass a laser one at a time.

In assay [3] the test system is T47D cells. As to the kind of experiment: TUNEL apoptosis assay, T47D. It is filed as cell-based, human. Particulars: 5 μM; 6 days; control about 1.5%.
Text: as §1, §2

Assay [4] concerns MDA-MB-231 cells. Further details: method as in Patel et al. (2004). Particulars: inhibition of cell proliferation by 50%; ref Patel et al. (2004); read-out: Cellular IC50, MDA-MB-231; cited from earlier work.
Assay [5] deals with MCF-7 cells. Further details: method as in Patel et al. (2004). As to conditions: inhibition of cell proliferation by 50%; ref Patel et al. (2004); read-out: Cellular IC50, MCF-7; cited from earlier work.
The test system of assay [6] is cyclin D1. As to the kind of experiment: Western blotting for cyclin D1 in MCF-7 cells. It is filed as cell-based, human. Particulars: 6 days (4HPR 4 days). The protocol:
At the end of the treatment, cells were scrapped and collected by washing with ice-cold PBS in a centrifuge tube. Cells were centrifuged at 2500 r.p.m. for 10 min, the pellet was again washed with ice-cold PBS and centrifuged. The cell pellet was then suspended in chilled cell lysis buffer (0.1 M Tris–HCl, 0.5% Triton X-100, protease inhibitor cocktail) and sonicated on ice for 10–15 s. The homogenate was kept on ice for 30 min and then centrifuged at 13 000 r.p.m. for 30 min. The supernatant was used as cell lysate. The cell lysates were stored at −80°C. Protein concentration of the cell lysates was determined using Bio-Rad protein assay reagents.
Protein lysates from MCF-7 and T47D cells were subjected to sodium dodecyl sulphate–polyacrylamide gel electrophoresis (SDS–PAGE) and immunoblotted for different proteins. […] Immunoreactive bands were visualised using the enhanced chemiluminescence detection reagents and analysis system (Amersham Bioscences) according to the manufacturer's instructions and quantified by densitometry using ImageQuant software version 5.
Figure 5 Western blotting of whole-cell lysates of treated MCF-7 and T47D cells for the expression of Cyclin D1. […] Numbers below the blot show fold decrease in expression of the protein as analysed by ImageQuant densitometry analysis. […]
For orientation: A western blot detects proteins with antibodies after separation by electrophoresis.

Here are results for one compound from paper PMC2360155, “Novel retinoic acid metabolism blocking agents have potent inhibitory activities on human breast cancer cells and tumour growth” (British Journal of Cancer, 2007).

In the case of `CC1=C(/C=C/C(C)=C/C=C/C(C)=C/C(=O)Nc2ccc(O)cc2)C(C)(C)CCC1` [Compound 4-HPR, 4-Hydroxyphenyl retinamide, reference compound], the “Induction of apoptosis (TUNEL), MCF-7” value in assay [1] was 20–25%. In assay [2], the “G2/M (%)” value came out at 16.75±4.39%, the “Go/G1 (%)” value is reported as 76.94±3.47%, the “S (%)” value was 6.32±0.93% and the “Sub-G1 (%)” value turned out to be 30.25±6.66%. In addition, the “Induction of apoptosis (TUNEL), T47D” value in assay [3] is 20–25%. Besides, the IC50 in assay [4] was 1400 nM. Besides, the IC50 in assay [5] was 148 nM. For the same compound, the “Decrease of cyclin D1 protein expression compared with untreated control” value in assay [6] is greater than 80%.

Broadly, the IC50 is the midpoint of a concentration-inhibition curve.
